Test results: ChEMBL document CHEMBL3046069, “Anti-inflammatory effects of two new methyl and morpholine derivatives of diphenhydramine on rats” (2012)
Calls of active or inactive are those of the source. No cut-off for these calls is given here.

Key:
[1] = tested on: Rattus norvegicus; assay: Anti-inflammatory activity in Rattus norvegicus Wistar (rat) assessed as cotton pellet-induced dry weight of granuloma administered 7 days post cotton pellet implantation measured on day 8 (reference value: […]); assay type: functional
[2] = tested on: Rattus norvegicus; assay: Anti-inflammatory activity in Rattus norvegicus Wistar (rat) assessed as inhibition of […]-induced ear edema administered 30 min prior to […] challenge measured after 30 min by Evans blue dye-based spectrophotometric analysis relative to control; assay type: functional, organism-based
[3] = tested on: Rattus norvegicus; assay: Anti-inflammatory activity in Rattus norvegicus Wistar (rat) assessed as inhibition of histamine-induced paw edema at 25 mg/kg, ip administered 30 min […] measured at 1 hr relative to control; assay type: functional; details: route intraperitoneal
[4] = tested on: Rattus norvegicus; assay: Anti-inflammatory activity in Rattus norvegicus Wistar (rat) assessed as inhibition of formalin-induced paw edema at 25 mg/kg, ip administered 30 min prior to formalin challenge measured at 1 hr relative to control; assay type: functional; details: route intraperitoneal
[5] = tested on: Rattus norvegicus; assay: Anti-inflammatory activity in Rattus norvegicus Wistar (rat) assessed as inhibition of acetic acid-induced dye extrusion into peritonial cavity administered 30 min prior to acetic acid challenge measured after 30 min by Evans blue dye-based spectrophotometric analysis relative to control; assay type: functional
[6] = tested on: Rattus norvegicus; assay: Anti-inflammatory activity in Rattus norvegicus Wistar (rat) assessed as inhibition of formalin-induced dye extrusion from plantar surface of paws at 25 mg/kg, ip administered 30 min prior to formalin challenge measured after 30 min by Evans blue dye-based spectrophotometric analysis; assay type: functional; details: route intraperitoneal
[7] = tested on: Rattus norvegicus; assay: Anti-inflammatory activity in Rattus norvegicus Wistar (rat) assessed as inhibition of histamine-induced dye extrusion from plantar surface of paws at 25 mg/kg, ip administered 30 min […] measured after 30 min by Evans blue dye-based spectroscopic analysis; assay type: functional; details: route intraperitoneal

| SMILES | Activity [1] [mg] | inhibition [2] | inhibition in vivo at 25 mg/kg [3] [%] | inhibition in vivo at 25 mg/kg [4] [%] | inhibition [5] | inhibition in vivo at 25 mg/kg [6] [%] | inhibition in vivo at 25 mg/kg [7] [%] | inhibition (INH) [5] [%] |
| --- | --- | --- | --- | --- | --- | --- | --- | --- |
| CN(C)CCOC(c1ccccc1)c1ccccc1 [DIPHENHYDRAMINE] | 76.2 |  |  |  |  |  |  |  |
| CN(C)CCOC(c1ccccc1)c1ccc(Br)cc1 (configuration not stated) [BROMODIPHENHYDRAMINE] |  | inactive | 22.4 | 14.3 | Active |  |  |  |
| Cc1ccc(C(OCCN2CCOCC2)c2ccc(C)cc2)cc1 | 71 | inactive |  |  |  | 60 | 60 | 63.26 |
| Cc1ccc(C(OCCN(C)C)c2ccc(C)cc2)cc1 [DI(P-TOLYL)(DIMETHYLAMINOETHOXY)METHANE] | 73.2 | inactive | 40.8 | 34.7 |  | 66.7 | 57.1 | 65.3 |
